{"source": "patent US20090068290A1", "about": "“BIFEPRUNOX DOSES FOR TREATING SCHIZOPHRENIA” (priority 2006, published 2009)", "key": {"[1]": {"test": "Body weight, Clinical Study Three", "text": "To assess the safety and tolerability of bifeprunox using physical examination, weight, waist circumference, vital signs (pulse rate and systolic/diastolic blood pressure [BP], and oral temperature), 12-lead electrocardiogram (ECG), clinical laboratory assessments (hematology, biochemistry including fasting insulin level, fasting glucose, fasting lipid profile, urinalysis, special laboratory assessments for prolactin, IGF-1, IGFBP-3, and thyroid function), need for anticholinergic treatment during double-blind treatment period, concomitant medication use, adverse event (AE) monitoring, and assessments of abnormal movement including the Simpson-Angus Scale (SAS), Barnes Akathisia Scale (BAS), and Abnormal Involuntary Movement Scale (AIMS)."}, "[2]": {"tested_on": "adult subjects with schizophrenia", "test": "Adverse events (TEAE, SAE, special interest, EPS-related TEAE), Clinical Study Two", "type": "in vivo, human", "protocol": "Subjects who completed this study had the option to continue in the long-term. […] Risperidone-treated subjects were titrated from 2 mg to 6 mg daily over a three-day period and were subsequently maintained at 6 mg/day for the remainder of the treatment period. […] Blood samples were also obtained at Screening/Baseline, Week 3, and Week 6 for clinical laboratory assessments."}}, "data": [{"smiles": "O=c1[nH]c2cccc(N3CCN(Cc4cccc(-c5ccccc5)c4)CC3)c2o1", "note": "[Bifeprunox, 7-[4-([1,1′-biphenyl]-3-ylmethyl)-1-piperazinyl]-2(3H)-benzoxazolone]", "values": [{"measurement": "Weight, Baseline Mean of subjects with Endpoint change", "setting": "[1]; Bifeprunox 30 mg", "result": 179.7, "unit": "lbs"}, {"measurement": "Weight, Baseline Mean of subjects with Week 6 change", "setting": "[1]; Bifeprunox 30 mg", "result": 172.6, "unit": "lbs"}, {"measurement": "Weight, Baseline, Max", "setting": "[1]; Bifeprunox 30 mg", "result": 358, "unit": "lbs"}, {"measurement": "Weight, Baseline, Mean (SD)", "setting": "[1]; Bifeprunox 30 mg", "result": "179.1 (62.4) lbs"}, {"measurement": "Weight, Baseline, Median", "setting": "[1]; Bifeprunox 30 mg", "result": 171, "unit": "lbs"}, {"measurement": "Weight, Baseline, Min", "setting": "[1]; Bifeprunox 30 mg", "result": 77, "unit": "lbs"}, {"measurement": "Weight, Change from Baseline at Endpoint, Max", "setting": "[1]; Bifeprunox 30 mg", "result": 39, "unit": "lbs"}, {"measurement": "Weight, Change from Baseline at Endpoint, Mean (SD)", "setting": "[1]; Bifeprunox 30 mg", "result": "−1.1 (7.4) lbs"}, {"measurement": "Weight, Change from Baseline at Endpoint, Median", "setting": "[1]; Bifeprunox 30 mg", "result": 0, "unit": "lbs"}, {"measurement": "Weight, Change from Baseline at Endpoint, Min", "setting": "[1]; Bifeprunox 30 mg", "result": "−22", "unit": "lbs"}, {"measurement": "Weight, Change from Baseline at Week 6, Max", "setting": "[1]; Bifeprunox 30 mg", "result": 39, "unit": "lbs"}, {"measurement": "Weight, Change from Baseline at Week 6, Mean (SD)", "setting": "[1]; Bifeprunox 30 mg", "result": "−1.0 (8.9) lbs"}, {"measurement": "Weight, Change from Baseline at Week 6, Median", "setting": "[1]; Bifeprunox 30 mg", "result": "−2", "unit": "lbs"}, {"measurement": "Weight, Change from Baseline at Week 6, Min", "setting": "[1]; Bifeprunox 30 mg", "result": "−18", "unit": "lbs"}, {"measurement": "incidence of markedly abnormal (≧7%) decrease in body weight", "setting": "[1]; Bifeprunox 30 mg", "result": 5, "unit": "%"}, {"measurement": "incidence of markedly abnormal (≧7%) increase in body weight", "setting": "[1]; Bifeprunox 30 mg", "result": 5, "unit": "%"}, {"measurement": "mean weight change at Endpoint", "setting": "[1]; Bifeprunox 30 mg", "result": "−1.1", "unit": "lbs"}, {"measurement": "Weight, Baseline Mean of subjects with Endpoint change", "setting": "[1]; bifeprunox 20 mg", "result": 178.8, "unit": "lbs"}, {"measurement": "Weight, Baseline Mean of subjects with Week 6 change", "setting": "[1]; bifeprunox 20 mg", "result": 171.9, "unit": "lbs"}, {"measurement": "Weight, Baseline, Max", "setting": "[1]; bifeprunox 20 mg", "result": 393, "unit": "lbs"}, {"measurement": "Weight, Baseline, Mean (SD)", "setting": "[1]; bifeprunox 20 mg", "result": "180.6 (61.7) lbs"}, {"measurement": "Weight, Baseline, Median", "setting": "[1]; bifeprunox 20 mg", "result": 176, "unit": "lbs"}, {"measurement": "Weight, Baseline, Min", "setting": "[1]; bifeprunox 20 mg", "result": 77, "unit": "lbs"}, {"measurement": "Weight, Change from Baseline at Endpoint, Max", "setting": "[1]; bifeprunox 20 mg", "result": 26, "unit": "lbs"}, {"measurement": "Weight, Change from Baseline at Endpoint, Mean (SD)", "setting": "[1]; bifeprunox 20 mg", "result": "−2.3 (7.3) lbs"}, {"measurement": "Weight, Change from Baseline at Endpoint, Median", "setting": "[1]; bifeprunox 20 mg", "result": "−1", "unit": "lbs"}, {"measurement": "Weight, Change from Baseline at Endpoint, Min", "setting": "[1]; bifeprunox 20 mg", "result": "−34", "unit": "lbs"}, {"measurement": "Weight, Change from Baseline at Week 6, Max", "setting": "[1]; bifeprunox 20 mg", "result": 26, "unit": "lbs"}, {"measurement": "Weight, Change from Baseline at Week 6, Mean (SD)", "setting": "[1]; bifeprunox 20 mg", "result": "−3.3 (8.2) lbs"}, {"measurement": "Weight, Change from Baseline at Week 6, Median", "setting": "[1]; bifeprunox 20 mg", "result": "−1", "unit": "lbs"}, {"measurement": "Weight, Change from Baseline at Week 6, Min", "setting": "[1]; bifeprunox 20 mg", "result": "−34", "unit": "lbs"}, {"measurement": "incidence of markedly abnormal (≧7%) decrease in body weight", "setting": "[1]; bifeprunox 20 mg", "result": 6, "unit": "%"}, {"measurement": "incidence of markedly abnormal (≧7%) increase in body weight", "setting": "[1]; bifeprunox 20 mg", "result": 1, "unit": "%"}, {"measurement": "mean weight change at Endpoint", "setting": "[1]; bifeprunox 20 mg", "result": "−2.3", "unit": "lbs"}, {"measurement": "mean body weight (in words)", "setting": "[1]; bifeprunox 20, 30 mg, 6 weeks", "result": "Small decreases in mean body weight"}, {"measurement": "AKATHISIA, %", "setting": "[2]; BX 30 mg", "result": "(3%)"}, {"measurement": "BALANCE DISORDER, %", "setting": "[2]; BX 30 mg", "result": "(<1%)"}, {"measurement": "COGWHEEL RIGIDITY, %", "setting": "[2]; BX 30 mg", "result": "(<1%)"}, {"measurement": "DISTURBANCE IN ATTENTION, %", "setting": "[2]; BX 30 mg", "result": "(<1%)"}, {"measurement": "DIZZINESS, %", "setting": "[2]; BX 30 mg", "result": "(8%)"}, {"measurement": "DYSARTHRIA, %", "setting": "[2]; BX 30 mg", "result": "(<1%)"}, {"measurement": "DYSGEUSIA, %", "setting": "[2]; BX 30 mg", "result": "(<1%)"}, {"measurement": "DYSKINESIA, %", "setting": "[2]; BX 30 mg", "result": "(1%)"}, {"measurement": "Dystonia, %", "setting": "[2]; BX 30 mg", "result": "(2%)"}, {"measurement": "EXTRAPYRAMIDAL DISORDER, %", "setting": "[2]; BX 30 mg", "result": "(5%)"}, {"measurement": "HEADACHE NOS, %", "setting": "[2]; BX 30 mg", "result": "(12%)"}, {"measurement": "MIGRAINE, %", "setting": "[2]; BX 30 mg", "result": "1 (<1%)"}, {"measurement": "NERVOUS SYSTEM DISORDERS, %", "setting": "[2]; BX 30 mg", "result": "(36%)"}, {"measurement": "PARAESTHESIA, %", "setting": "[2]; BX 30 mg", "result": "1 (<1%)"}, {"measurement": "PSYCHOMOTOR HYPERACTIVITY, %", "setting": "[2]; BX 30 mg", "result": "1 (<1%)"}, {"measurement": "SEDATION, %", "setting": "[2]; BX 30 mg", "result": 5, "unit": "%"}, {"measurement": "Syncope, %", "setting": "[2]; BX 30 mg", "result": "1 (<1%)"}, {"measurement": "TARDIVE DYSKINESIA, %", "setting": "[2]; BX 30 mg", "result": "< 1", "unit": "%"}, {"measurement": "TREMOR, %", "setting": "[2]; BX 30 mg", "result": 6, "unit": "%"}, {"measurement": "AKATHISIA, %", "setting": "[2]; BX 40 mg", "result": "(7%)"}, {"measurement": "Choreoathetosis, %", "setting": "[2]; BX 40 mg", "result": "(<1%)"}, {"measurement": "DIZZINESS, %", "setting": "[2]; BX 40 mg", "result": "(14%)"}, {"measurement": "DYSKINESIA, %", "setting": "[2]; BX 40 mg", "result": "(3%)"}, {"measurement": "Dystonia, %", "setting": "[2]; BX 40 mg", "result": "(2%)"}, {"measurement": "EXTRAPYRAMIDAL DISORDER, %", "setting": "[2]; BX 40 mg", "result": "(5%)"}, {"measurement": "HEADACHE NOS, %", "setting": "[2]; BX 40 mg", "result": "(17%)"}, {"measurement": "NERVOUS SYSTEM DISORDERS, %", "setting": "[2]; BX 40 mg", "result": "(37%)"}, {"measurement": "SEDATION, %", "setting": "[2]; BX 40 mg", "result": 3, "unit": "%"}, {"measurement": "SOMNOLENCE, %", "setting": "[2]; BX 40 mg", "result": "1 (<1%)"}, {"measurement": "TARDIVE DYSKINESIA, %", "setting": "[2]; BX 40 mg", "result": "1 (<1%)"}, {"measurement": "TREMOR, %", "setting": "[2]; BX 40 mg", "result": 7, "unit": "%"}]}]}
